The text below walks through data of the RepoRT retention time repository (doi:10.1016/j.chroma.2015.03.063).

Structures are written as SMILES.

This data set can be described thus: Agilent ZORBAX Eclipse Plus C18, 100 × 2.1 mm, 1.8 µm, 25 °C, 0.3 mL/min, estimated dead time 0.73 min; A: water + 0.1% acetic acid; B: methanol; gradient (min/%B) 0/5 6/20 13/35 18/50 24/65 30/90 40/90. To be noted: stereoisomer not certain.

On to `C[N+](C)(C)CC(=O)[O-]`, for which the LC retention time is 2.8 min. The value for `CCCCC=CC=CC=O` was 22.7 min; that for `CSCCC(N)C(=O)O` (stereo not given) was 3.21 min; that for `CCC(C)C(N)C(=O)O` (stereo not given) was 4.67 min. The value for `OCC1OC(OCC2OC(OC3(CO)OC(CO)C(O)C3O)C(O)C(O)C2O)C(O)C(O)C1O` (stereo not given) was 2.54 min.

In the case of `COc1ccc(-c2coc3cc(O)ccc3c2=O)cc1O`, the LC retention time is 23.6 min. `CC1OC(OCC2OC(Oc3c(-c4ccc(O)c(O)c4)oc4cc(O)cc(O)c4c3=O)C(O)C(O)C2O)C(O)C(O)C1O` (stereo not given): the LC retention time is 11.6 min. The value for `COc1ccc(-c2coc3cc(OC4OC(CO)C(O)C(O)C4O)ccc3c2=O)cc1` (stereo not given) was 21.6 min. The value for `NCCCCC(N)C(=O)O` (stereo not given) was 1.88 min; that for `CC(O)C(N)C(=O)O` (stereo not given) was 2.12 min.
